Among the data in ChEMBL document CHEMBL4257551, “Glycyrrhizic acid from licorice down-regulates inflammatory responses via blocking MAPK and PI3K/Akt-dependent NF-κB signalling pathways in TPA-induced skin inflammation” (2018) are Activity values, retold here.

Holding throughout (type): functional
The subject of assay [1] is Mus musculus. Put plainly: Antiinflammatory activity against TPA-induced ear edema in BALB/c mouse assessed as weight of ear punches at 5 mM administered topically for 15 mins prior to TPA challenge and measured after 3 hrs (reference value: 8.3 +/- 0.1 mg).
Assay [2] deals with Mus musculus. Put plainly: Antiinflammatory activity against TPA-induced ear edema in BALB/c mouse assessed as weight of ear punches at 5 mM administered topically for 15 mins prior to TPA challenge and measured after 6 hrs (reference value: 12.5 +/- 0.3 mg).
Assay [3] has as its system Mus musculus. Briefly: Antiinflammatory activity against TPA-induced ear edema in BALB/c mouse assessed as weight of ear punches at 5 mM administered topically for 15 mins prior to TPA challenge and measured after 12 hrs (reference value: 12.4 +/- 0.1 mg).
Assay [4] deals with Mus musculus. Put plainly: Antiinflammatory activity against TPA-induced ear edema in BALB/c mouse assessed as weight of ear punches at 5 mM administered topically for 15 mins prior to TPA challenge and measured after 24 hrs (reference value: 12.1 +/- 0.2 mg).
The test system of assay [5] is Mus musculus. Briefly: Antiinflammatory activity against TPA-induced ear edema in BALB/c mouse assessed as weight of ear punches at 5 mM administered topically for 15 mins prior to TPA challenge and measured after 48 hrs (reference value: 11.4 +/- 0.3 mg).

Take `C[C@]12C=CC(=O)C=C1CC[C@@H]1[C@@H]2[C@@H](O)C[C@@]2(C)[C@H]1CC[C@]2(O)C(=O)CO` [PREDNISOLONE]: the Activity in the assay with Mus musculus [1] is 5.4 mg; with Mus musculus [2], 5.6 mg; with Mus musculus [3], 5.7 mg; in the assay with Mus musculus [4], 5.6 mg; in the assay with Mus musculus [5] it was 5.6 mg.
